# Tests used:
# Assay type in all cases: in vivo
# [1] = system: LOLMU (Lolium multiflorum); test: Greenhouse postemergence herbicidal activity, LOLMU; conditions: 20 DAT
# Protocol: (§1) The test plants have been seeded, separately for each species, in plastic containers in sandy loamy soil containing 5% of organic matter.
# (§2) For the post emergence treatment, the plants were first grown to the 2 leaf station (GS 12). Here, the herbicidal compositions were suspended or emulsified in water as distribution medium and sprayed using finely distributing nozzels.
# (§3) The plants have been cultivated due to their individual requirements at 10-25° C. and 20-35° C. The plants were irrigated due to their necessity.
# (§4) The racemic mixture (±)-2-exo-(2-Methylbenzyloxy)-1-methyl-4-isopropyl-7-oxabicyclo[2.2.1]heptane was used as herbicide A and formulated as emulsifiable concentrates with an active ingredient concentration of 50 g/l, 100 g/l or 750 g/l respectively.
# (§5) Pyroxasulfone (herbicide B) was used as a water dispersible granule (85% WG).
# (§6) In the following experiments, the herbicidal activity for the individual herbicidal compositions (solo and mixture applications) was assessed 20 days after treatment (DAT).
# (§7) The evaluation for the damage on undesired weeds caused by the chemical compositions was carried out using a scale from 0 to 100%, compared to the untreated control plants. Here, 0 means no damage and 100 means complete destruction of the plants.
# (§8) E=X+Y−(X·Y/100) where X=effect in percent using herbicide A at an application rate a; • Y=effect in percent using herbicide B at application rate b; • E=expected effect (in %) of herbicide A+herbicide B at application rates a+b.
# (§9) The value E corresponds to the effect (plant damage or injury) which is to be expected if the activity of the individual compounds is additive. If the observed effect is higher than the value E calculated according to the Colby equation, a synergistic effect is present.
# GALAP (Galium aparine) = test: Greenhouse preemergence herbicidal activity, GALAP; conditions: 20 DAT
# Protocol: as §1
# (§10) The containers were irrigated gently to promote germination and growth and subsequently covered with transparent plastic hoods until the plants had rooted.
# as §3, §4, §5, §6, §7, §8, §9
# [2] = system: POLCO (Polygonum convolvulus); test: Greenhouse preemergence herbicidal activity, POLCO; conditions: 20 DAT
# Protocol: as §1, §10, §3, §4, §5, §6, §7, §8, §9
# [3] = system: AMARE (Amaranthus retroflexus); test: Greenhouse postemergence herbicidal activity, AMARE; conditions: herbicide A solo 250 g ai/ha, 20 DAT
# Protocol: as §1, §2, §3, §4, §5
# (§11) In the following experiments, the herbicidal activity for the individual herbicidal compositions (solo and mixture applications) was assessed 20 days after treatment (DAT). […]
# as §9
# STEME (Stellaria media) [4] = test: Greenhouse preemergence herbicidal activity, STEME; conditions: 20 DAT
# Protocol: as §1, §10, §3, §4, §5, §6, §7, §8, §9
# [5] = system: SORHA (Sorghum halepense); test: Greenhouse postemergence herbicidal activity, SORHA; conditions: herbicide A solo 62.5 g ai/ha, 20 DAT
# Protocol: as §1, §2, §3, §4, §5, §11, §9
# [6] = system: GERDI (Geranium dissectum); test: Greenhouse preemergence herbicidal activity, GERDI; conditions: 20 DAT
# Protocol: as §1, §10, §3, §4, §5, §6, §7, §8, §9
# [7] = system: POLCO (Polygonum convolvulus); test: Greenhouse postemergence herbicidal activity, POLCO; conditions: herbicide A solo 250 g ai/ha, 20 DAT
# Protocol: as §1, §2, §3, §4, §5, §11, §9
# STEME (Stellaria media) [8] = test: Greenhouse postemergence herbicidal activity, STEME; conditions: 20 DAT
# Protocol: as §1, §2, §3, §4, §5, §6, §7, §8, §9
# [9] = system: ABUTH (Abutilon theoprasti); test: Greenhouse preemergence herbicidal activity, ABUTH; conditions: 20 DAT
# Protocol: as §1, §10, §3, §4, §5, §6, §7, §8, §9
# [10] = system: ANTAR (Anthemis arvensis); test: Greenhouse postemergence herbicidal activity, ANTAR; conditions: 20 DAT
# Protocol: as §1, §2, §3, §4, §5, §6, §7, §8, §9
# [11] = system: CHEAL (Chenopodium album); test: Greenhouse postemergence herbicidal activity, CHEAL; conditions: 20 DAT
# Protocol: as §1, §2, §3, §4, §5, §6, §7, §8, §9
# [12] = system: AMARE (Amaranthus retroflexus); test: Greenhouse preemergence herbicidal activity, AMARE; conditions: herbicide A solo 25 g ai/ha, 20 DAT
# Protocol: as §1, §10, §3, §4, §5, §6
# The evaluation for the damage on undesired weeds caused by the chemical compositions was carried out using a scale from 0 to 100%, compared to the untreated control plants. […]
# as §9
# [13] = system: ANTAR (Anthemis arvensis); test: Greenhouse preemergence herbicidal activity, ANTAR; conditions: 20 DAT
# Protocol: as §1, §10, §3, §4, §5, §6, §7, §8, §9
# [14] = system: LOLMU (Lolium multiflorum); test: Greenhouse preemergence herbicidal activity, LOLMU; conditions: 20 DAT
# Protocol: as §1, §10, §3, §4, §5, §6, §7, §8, §9
# AVEFA (Avena fatua) [15] = test: Greenhouse postemergence herbicidal activity, AVEFA; conditions: 20 DAT
# Protocol: as §1, §2, §3, §4, §5, §6, §7, §8, §9
# [16] = system: CHEAL (Chenopodium album); test: Greenhouse preemergence herbicidal activity, CHEAL; conditions: 20 DAT
# Protocol: as §1, §10, §3, §4, §5, §6, §7, §8, §9
# AVEFA (Avena fatua) [17] = test: Greenhouse preemergence herbicidal activity, AVEFA; conditions: 20 DAT
# Protocol: as §1, §10, §3, §4, §5, §6, §7, §8, §9
structure (smiles),measurement,setting,value
"Cc1ccccc1CO[C@@H]1C[C@@]2(C(C)C)CC[C@]1(C)O2 (racemic) [herbicide A, (±)-2-exo-(2-Methylbenzyloxy)-1-methyl-4-isopropyl-7-oxabicyclo[2.2.1]heptane]",herbicidal activity,[1]; herbicide A solo 43.75 g ai/ha,0%
same,herbicidal activity,[1]; herbicide A solo 62.5 g ai/ha,0%
same,herbicidal activity,[1]; herbicide A solo 87.5 g ai/ha,0%
same,herbicidal activity,[1]; herbicide A solo 125 g ai/ha,0%
same,herbicidal activity,GALAP (Galium aparine); herbicide A solo 25 g ai/ha,0%
same,herbicidal activity,GALAP (Galium aparine); herbicide A solo 50 g ai/ha,0%
same,herbicidal activity,GALAP (Galium aparine); herbicide A solo 200 g ai/ha,30%
same,herbicidal activity,GALAP (Galium aparine); herbicide A solo 300 g ai/ha,30%
same,herbicidal activity,[2]; herbicide A solo 37.5 g ai/ha,0%
same,herbicidal activity,[2]; herbicide A solo 50 g ai/ha,0%
same,herbicidal activity,[2]; herbicide A solo 75 g ai/ha,0%
same,herbicidal activity,[2]; herbicide A solo 100 g ai/ha,0%
same,herbicidal activity,[2]; herbicide A solo 200 g ai/ha,0%
same,herbicidal activity,[2]; herbicide A solo 300 g ai/ha,0%
same,herbicidal activity,[3],25%
same,herbicidal activity,STEME (Stellaria media) [4]; herbicide A solo 25 g ai/ha,20%
same,herbicidal activity,STEME (Stellaria media) [4]; herbicide A solo 37.5 g ai/ha,0%
same,herbicidal activity,STEME (Stellaria media) [4]; herbicide A solo 50 g ai/ha,20%
same,herbicidal activity,STEME (Stellaria media) [4]; herbicide A solo 75 g ai/ha,20%
same,herbicidal activity,[5],40%
same,herbicidal activity,[6]; herbicide A solo 50 g ai/ha,50%
same,herbicidal activity,[6]; herbicide A solo 100 g ai/ha,50%
same,herbicidal activity,[6]; herbicide A solo 150 g ai/ha,50%
same,herbicidal activity,[7],40%
same,herbicidal activity,STEME (Stellaria media) [8]; herbicide A solo 43.75 g ai/ha,0%
same,herbicidal activity,STEME (Stellaria media) [8]; herbicide A solo 62.5 g ai/ha,25%
same,herbicidal activity,STEME (Stellaria media) [8]; herbicide A solo 125 g ai/ha,65%
same,herbicidal activity,STEME (Stellaria media) [8]; herbicide A solo 175 g ai/ha,40%
same,herbicidal activity,STEME (Stellaria media) [8]; herbicide A solo 250 g ai/ha,70%
same,herbicidal activity,[9]; herbicide A solo 37.5 g ai/ha,0%
same,herbicidal activity,[9]; herbicide A solo 75 g ai/ha,0%
same,herbicidal activity,[9]; herbicide A solo 150 g ai/ha,0%
same,herbicidal activity,[9]; herbicide A solo 300 g ai/ha,0%
same,herbicidal activity,[10]; herbicide A solo 62.5 g ai/ha,40%
same,herbicidal activity,[10]; herbicide A solo 175 g ai/ha,90%
same,herbicidal activity,[10]; herbicide A solo 250 g ai/ha,90%
same,herbicidal activity,[11]; herbicide A solo 62.5 g ai/ha,30%
same,herbicidal activity,[11]; herbicide A solo 87.5 g ai/ha,65%
same,herbicidal activity,[11]; herbicide A solo 125 g ai/ha,50%
same,herbicidal activity,[11]; herbicide A solo 175 g ai/ha,60%
same,herbicidal activity,[11]; herbicide A solo 500 g ai/ha,75%
same,herbicidal activity,[12],0%
same,herbicidal activity,[13]; herbicide A solo 25 g ai/ha,0%
same,herbicidal activity,[13]; herbicide A solo 37.5 g ai/ha,0%
same,herbicidal activity,[13]; herbicide A solo 50 g ai/ha,0%
same,herbicidal activity,[13]; herbicide A solo 75 g ai/ha,0%
same,herbicidal activity,[13]; herbicide A solo 100 g ai/ha,0%
same,herbicidal activity,[13]; herbicide A solo 150 g ai/ha,0%
same,herbicidal activity,[13]; herbicide A solo 200 g ai/ha,0%
same,herbicidal activity,[13]; herbicide A solo 300 g ai/ha,0%
same,herbicidal activity,[14]; herbicide A solo 25 g ai/ha,50%
same,herbicidal activity,[14]; herbicide A solo 37.5 g ai/ha,60%
same,herbicidal activity,AVEFA (Avena fatua) [15]; herbicide A solo 43.75 g ai/ha,25%
same,herbicidal activity,AVEFA (Avena fatua) [15]; herbicide A solo 87.5 g ai/ha,30%
same,herbicidal activity,AVEFA (Avena fatua) [15]; herbicide A solo 125 g ai/ha,60%
same,herbicidal activity,[16]; herbicide A solo 25 g ai/ha,20%
same,herbicidal activity,[16]; herbicide A solo 37.5 g ai/ha,20%
same,herbicidal activity,[16]; herbicide A solo 50 g ai/ha,30%
same,herbicidal activity,[16]; herbicide A solo 75 g ai/ha,20%
same,herbicidal activity,AVEFA (Avena fatua) [17]; herbicide A solo 37.5 g ai/ha,0%
same,herbicidal activity,AVEFA (Avena fatua) [17]; herbicide A solo 50 g ai/ha,0%
same,herbicidal activity,AVEFA (Avena fatua) [17]; herbicide A solo 75 g ai/ha,20%
same,herbicidal activity,AVEFA (Avena fatua) [17]; herbicide A solo 150 g ai/ha,40%
